In this assay the target is T1, AtGID1c in the presence of GAI (Arabidopsis thaliana, UniProt Q940G6).
T1 construct: made in house; host or cells: E. coli (stated for AtGID1)
T1 sequence (Q940G6 1-344): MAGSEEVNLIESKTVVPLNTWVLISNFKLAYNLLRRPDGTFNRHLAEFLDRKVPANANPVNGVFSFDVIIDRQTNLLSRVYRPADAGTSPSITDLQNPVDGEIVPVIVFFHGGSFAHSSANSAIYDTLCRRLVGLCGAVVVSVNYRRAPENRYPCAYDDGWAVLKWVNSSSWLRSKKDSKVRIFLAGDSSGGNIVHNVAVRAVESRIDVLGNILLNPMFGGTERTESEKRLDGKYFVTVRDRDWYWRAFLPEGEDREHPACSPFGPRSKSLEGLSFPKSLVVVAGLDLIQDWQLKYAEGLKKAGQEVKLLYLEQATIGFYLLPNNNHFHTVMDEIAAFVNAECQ
T1 sequence (Q9LQT8 1-533 partner): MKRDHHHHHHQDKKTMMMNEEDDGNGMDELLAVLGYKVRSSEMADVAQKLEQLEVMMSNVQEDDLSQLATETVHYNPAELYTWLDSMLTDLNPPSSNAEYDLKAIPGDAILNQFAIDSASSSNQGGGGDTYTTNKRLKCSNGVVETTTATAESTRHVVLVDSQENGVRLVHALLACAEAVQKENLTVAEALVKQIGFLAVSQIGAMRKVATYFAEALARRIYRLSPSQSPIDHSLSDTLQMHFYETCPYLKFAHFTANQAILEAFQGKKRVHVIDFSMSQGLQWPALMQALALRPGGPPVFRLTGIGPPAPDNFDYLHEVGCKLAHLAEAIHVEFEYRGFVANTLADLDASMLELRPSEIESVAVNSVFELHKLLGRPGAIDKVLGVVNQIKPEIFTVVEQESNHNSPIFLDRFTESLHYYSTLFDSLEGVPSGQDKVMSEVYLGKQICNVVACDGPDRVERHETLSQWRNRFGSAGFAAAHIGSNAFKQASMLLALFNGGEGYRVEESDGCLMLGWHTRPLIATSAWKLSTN
Kind of assay: Scatchard analysis of AtGID1c-GA binding in the presence of GAI. The protocol: Panel A) depicts AtGID1-AtDELLA interaction in the presence of GA in two types of yeast hybrid (Y2H) assays. Each AtGID1 was used as a bait while AtDELLA was a prey. GA4 (10^−5 M) was added to the medium. The bars indicates β-galactosidase activity when o-nitrophenol-β-D-galactopyranoside was used as a substrate (Assay B). The growth of each transformant in the defined medium for 2 days (Assay A) is shown beneath of each bar graph. The experiment was carried out in quadruplicate. The SD value shown in the figure was determined from three measurements. Panel B) depicts the dose response in AtGID1-RGA interaction in Assay B of Y2H. GA4 (10^−5 to 10^−9 M) was added to the medium. The experiment was conducted in […]. The SD value shown in the figure was determined from three measurements. Panel C) depicts the results of an evaluation of the in vitro GA-binding potency of AtGID1 using AtDELLA. […] GAI (G) or RGA (R) was added, and then the GA-binding activity in each reaction mixture was measured according to the standard method. […] The SD value was determined from three measurements. […]
Next, whether AtDELLAs exert some kind of influence on the GA-binding activity of AtGID1s was examined in vitro. After labeled 16,17-dihydro-GA4 and AtGID1s were combined, AtDELLAs were added to the solutions, and the GA-binding activity was measured. […]

Broadly, the Kd is the free concentration of one partner at which half of the binding sites on the other are occupied at equilibrium, for simple one-to-one binding.

Consider `CC1C[C@]23C[C@H]1CCC2[C@]12CC[C@H](O)[C@](C)(C(=O)O1)[C@H]2[C@@H]3C(=O)O` (stereo partly shown) [H2-GA4, 16,17-dihydro-GA4], for which the Kd was 46 nM.

Source of the values: patent US7915050B2, “Regulatory genes for plant differentiation and growth, and use of the same” (National University Corporation Nagoya University, priority 2005, dated 2011).
